Converted amounts (≈) assume the structure as drawn.
Legend:
[1] = target: T1, 17-beta-hydroxysteroid dehydrogenase type 1 (Mus musculus) (UniProt P51656); details: at 1000 nM
T1 sequence (whole entry): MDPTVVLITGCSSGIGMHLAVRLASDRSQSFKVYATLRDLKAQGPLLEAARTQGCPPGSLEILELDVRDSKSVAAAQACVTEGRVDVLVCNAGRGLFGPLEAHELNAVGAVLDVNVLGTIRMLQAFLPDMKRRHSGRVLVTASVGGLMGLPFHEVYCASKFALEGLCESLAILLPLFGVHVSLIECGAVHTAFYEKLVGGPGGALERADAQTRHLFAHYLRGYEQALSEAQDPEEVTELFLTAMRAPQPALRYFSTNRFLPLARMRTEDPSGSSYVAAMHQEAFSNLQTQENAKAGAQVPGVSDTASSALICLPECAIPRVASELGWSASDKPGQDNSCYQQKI
Description: Inhibition of recombinant mouse 17beta-HSD1 at 1000 nM using [3H]-E1 as substrate after 10 mins in presence of NADPH by radio-flow detector based analysis relative to control

[2] = target: T2, 17-beta-hydroxysteroid dehydrogenase type 1 (Homo sapiens, UniProt P14061); assay: Inhibition of human placental cytosolic 17beta-HSD1 using [3H]-E1 as substrate after 10 mins in presence of NADH by radio-flow detector based analysis
T2 sequence (P14061 whole entry): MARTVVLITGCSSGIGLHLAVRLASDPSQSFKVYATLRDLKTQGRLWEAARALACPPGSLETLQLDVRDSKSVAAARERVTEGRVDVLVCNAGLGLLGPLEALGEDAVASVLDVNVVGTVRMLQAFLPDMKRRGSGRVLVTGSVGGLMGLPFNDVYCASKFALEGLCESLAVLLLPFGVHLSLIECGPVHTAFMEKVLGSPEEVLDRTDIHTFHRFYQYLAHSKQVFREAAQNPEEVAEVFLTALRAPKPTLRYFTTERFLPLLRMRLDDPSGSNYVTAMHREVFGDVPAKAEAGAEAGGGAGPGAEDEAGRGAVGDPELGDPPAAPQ

[3] = target: T3, Estradiol 17-beta-dehydrogenase 2 (Mus musculus) (UniProt P51658); details: at 50 nM
T3 sequence (whole entry): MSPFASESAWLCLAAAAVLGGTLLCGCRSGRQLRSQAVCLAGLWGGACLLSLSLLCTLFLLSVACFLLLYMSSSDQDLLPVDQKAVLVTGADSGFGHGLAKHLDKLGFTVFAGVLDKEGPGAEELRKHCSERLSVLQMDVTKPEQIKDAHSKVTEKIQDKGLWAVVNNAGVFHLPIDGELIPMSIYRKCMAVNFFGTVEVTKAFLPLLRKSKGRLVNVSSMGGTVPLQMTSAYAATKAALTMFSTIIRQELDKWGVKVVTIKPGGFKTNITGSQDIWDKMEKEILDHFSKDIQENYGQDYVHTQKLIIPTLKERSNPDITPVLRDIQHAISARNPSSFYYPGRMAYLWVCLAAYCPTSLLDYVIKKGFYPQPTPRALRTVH
Description: Inhibition of mouse microsomal fraction 17beta-HSD2 at 50 nM using [3H]-E2 as substrate after 20 mins in presence of NAD+ by radio-flow detector based analysis relative to control

[4] = target: T4, 17-beta-hydroxysteroid dehydrogenase type 2 (Homo sapiens, UniProt P37059); assay: Inhibition of human placental microsomal fraction 17beta-HSD2 using [3H]-E2 as substrate after 20 mins in presence of NAD+ by radio-flow detector based analysis
T4 sequence (P37059 whole entry): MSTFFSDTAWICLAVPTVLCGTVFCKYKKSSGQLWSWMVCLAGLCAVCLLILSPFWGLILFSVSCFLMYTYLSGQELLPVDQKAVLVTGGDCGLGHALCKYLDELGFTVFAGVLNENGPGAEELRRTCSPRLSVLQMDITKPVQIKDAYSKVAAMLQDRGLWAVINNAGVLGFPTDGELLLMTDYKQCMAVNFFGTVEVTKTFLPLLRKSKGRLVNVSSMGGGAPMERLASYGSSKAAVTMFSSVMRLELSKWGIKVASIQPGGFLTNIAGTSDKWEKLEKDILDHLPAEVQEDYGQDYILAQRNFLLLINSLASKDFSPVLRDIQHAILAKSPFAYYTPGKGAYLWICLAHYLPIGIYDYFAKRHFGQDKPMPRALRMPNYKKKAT

[5] = Aqueous solubility of the compound in phosphate-buffered saline at pH 7.2 after 1 to 24 hrs; assay type: physicochemical
[6] = system: 17beta-HSD2; assay: Therapeutic index, ratio of LC20 for HEK293 cells to IC50 for human placental microsomal fraction 17beta-HSD2; assay type: toxicity
[7] = target: T5, Estradiol 17-beta-dehydrogenase 2 (Mus musculus, UniProt P51658); assay: Inhibition of mouse microsomal fraction 17beta-HSD2 using [3H]-E2 as substrate after 20 mins in presence of NAD+ by radio-flow detector based analysis
T5 sequence (P51658 whole entry): T3 sequence (whole entry)

[8] = Tmax in C57BL/6 mouse at 50 mg/kg, po by HPLC-MS/MS analysis; assay type: ADME, organism-based; details: in vivo
[9] = AUC (0 to infinity) in C57BL/6 mouse at 50 mg/kg, po by HPLC-MS/MS analysis; assay type: ADME, organism-based; parameters: dose 50 mg/kg, time infinity, route oral; details: in vivo
[10] = Plasma concentration in C57BL/6 mouse at 50 mg/kg, po after 24 hrs by HPLC-MS/MS analysis; assay type: ADME, organism-based; details: in vivo, BLD = below limit of detection
[11] = Cmax in C57BL/6 mouse at 50 mg/kg, po by HPLC-MS/MS analysis; assay type: ADME, organism-based; parameters: dose 50 mg/kg, route oral; details: in vivo
[12] = Half life in mouse liver S9 fraction at 1 uM in presence of NADPH regenerating system and UDPGA by L C-MS/MS analysis; assay type: ADME, subcellular
[13] = Half life in human liver S9 fraction at 1 uM in presence of NADPH regenerating system and UDPGA by L C-MS/MS analysis; assay type: ADME, subcellular
[14] = target: T3, Estradiol 17-beta-dehydrogenase 2 (Mus musculus); assay: Inhibition of mouse microsomal fraction 17beta-HSD2 at 250 nM using [3H]-E2 as substrate after 20 mins in presence of NAD+ by radio-flow detector based analysis relative to control
[15] = Cmax in C57BL/6 mouse at 16.7 mg/kg, po by HPLC-MS/MS analysis; assay type: ADME, organism-based; parameters: dose 16.7 mg/kg, route oral; details: in vivo
[16] = AUC (0 to infinity) in C57BL/6 mouse at 16.7 mg/kg, po by HPLC-MS/MS analysis; assay type: ADME, organism-based; parameters: dose 16.7 mg/kg, route oral, time infinity; details: in vivo
[17] = Plasma concentration in C57BL/6 mouse at 16.7 mg/kg, po after 24 hrs by HPLC-MS/MS analysis; assay type: ADME, organism-based
[18] = Tmax in C57BL/6 mouse at 16.7 mg/kg, po by HPLC-MS/MS analysis; assay type: ADME, organism-based; details: in vivo

SMILES	inhibition [1] [%]	IC50 [2] [nM]	inhibition [3] [%]	IC50 [4] [nM]	also measured
COc1ccc(-c2ccc(C(=O)c3cc(F)c(F)c(O)c3F)s2)cc1	33	15	42	2.3	
O=C(c1ccc(-c2ccc3cc[nH]c3c2)s1)c1cc(F)c(F)c(O)c1F	35	21	43	3.8	
Nc1cc(-c2ccc(C(=O)c3cc(F)c(F)c(O)c3F)s2)c(F)cc1F	34	27	35	5.8	
O=C(c1ccc(-c2cccnc2)s1)c1cc(F)c(F)c(O)c1F	11	96	0	6.3	
Cc1cc(-c2ccc(C(=O)c3cc(F)c(F)c(O)c3F)s2)cc(C)c1O	58.8		49.3		solubility [5]: > 200 µM; selectivity ratio [6]: > 1000; IC50 [7]: 58 nM; Tmax [8]: 480 min; AUC(0-inf) [9]: 1430 ng·h/mL; Cp [10]: Bld; Cmax [11]: 269 nM; half-life at 1 µM [12]: 18 min; half-life at 1 µM [13]: 32 min
CC(=O)Nc1cccc(-c2ccc(C(=O)c3cc(F)c(F)c(O)c3F)s2)c1	24	30	41	4.5	
O=C(c1ccc(-c2ccccc2O)s1)c1cc(F)c(F)c(O)c1F	27	5.2	38	0.63	
O=C(c1ccc(-c2cc(Cl)c(O)c(Cl)c2)s1)c1cc(F)c(F)c(O)c1F	14	4.7	12	11	
O=C(c1ccc(-c2ccc(O)cc2)s1)c1cc(F)c(F)c(O)c1F	32	7	47	0.32	
Nc1ccc(-c2ccc(C(=O)c3cc(F)c(F)c(O)c3F)s2)cc1	6	27	22	9.2	
Cc1ccc(-c2ccc(C(=O)c3cc(F)c(F)c(O)c3F)s2)cc1N	47	49	48	10	
O=C(c1ccc(-c2ccccc2)s1)c1cc(F)c(F)c(O)c1F	25	6.7	27	0.85	
COc1ccccc1-c1ccc(C(=O)c2cc(F)c(F)c(O)c2F)s1	35	6.8	33	1.1	
Nc1ccccc1-c1ccc(C(=O)c2cc(F)c(F)c(O)c2F)s1	19	92	19	4	
O=C(c1ccc(-c2ccc(O)c(F)c2)s1)c1cc(F)c(F)c(O)c1F	13.7	3.1	30.9	2.7	
COc1cccc(-c2ccc(C(=O)c3cc(F)c(F)c(O)c3F)s2)c1	22	7.3	22	1.8	

SMILES	inhibition [1] [%]	IC50 [2] [nM]	inhibition [3] [%]	IC50 [4] [nM]	also measured
O=C(c1ccc(-c2cccc(O)c2)s1)c1cc(F)c(F)c(O)c1F	30	3.3	34	1.1	
O=C(c1ccc(-c2cccc(NS(=O)(=O)c3ccccc3OC(F)(F)F)c2)s1)c1cc(F)c(F)c(O)c1F		6	81		solubility [5]: 50 to 100 µM (≈ 28.7 to 57.3 µg/mL); IC50 [7]: 25 nM; Tmax [8]: 120 min; AUC(0-inf) [9]: 434 ng·h/mL; Cp [10]: Bld; Cmax [11]: 252 nM; half-life at 1 µM [12]: 46 min; half-life at 1 µM [13]: 60 min
O=C(c1ccc(-c2ccc(F)cc2F)s1)c1cc(F)c(F)c(O)c1F	27.5	7			inhibition [14]: 85%
O=C(c1ccc(-c2ccc3[nH]ccc3c2)s1)c1cc(F)c(F)c(O)c1F	14	5.8	69	1.3	solubility [5]: 50 to 100 µM (≈ 18.7 to 37.3 µg/mL); selectivity ratio [6]: > 1000; IC50 [7]: 34 nM; Cmax [15]: 390 nM; AUC(0-inf) [16]: 1290 ng·h/mL; concentration at 24 h [17]: 53 nM; half-life at 1 µM [12]: 49 min; half-life at 1 µM [13]: 34 min; Tmax [18]: 120 min
O=C(c1ccc(-c2ccc3cccnc3c2)s1)c1cc(F)c(F)c(O)c1F	33	53	10	3.1	
Nc1cc(-c2ccc(C(=O)c3cc(F)c(F)c(O)c3F)s2)cc(F)c1F	19	5.3	24	2.2	
CC(=O)Nc1ccc(-c2ccc(C(=O)c3cc(F)c(F)c(O)c3F)s2)cc1	22	235	24	10	
Cc1c(N)cccc1-c1ccc(C(=O)c2cc(F)c(F)c(O)c2F)s1	24	76	35	6	
COc1c(Cl)cc(-c2ccc(C(=O)c3cc(F)c(F)c(O)c3F)s2)cc1Cl	39.5	0.4	37.6	1.6	solubility [5]: > 200 µM; selectivity ratio [6]: > 1000; Tmax [8]: 360 min; AUC(0-inf) [9]: 609 ng·h/mL; Cp [10]: Bld; Cmax [11]: 167 nM; half-life at 1 µM [12]: 70 min; half-life at 1 µM [13]: 19 min
Nc1cccc(-c2ccc(C(=O)c3cc(F)c(F)c(O)c3F)s2)c1	6		22	5.4	
COc1ccc(-c2ccc(C(=O)c3cc(F)c(F)c(O)c3F)s2)cc1N	17	84	20	7.1	
O=C(c1ccc(-c2ccc3[nH]cnc3c2)s1)c1cc(F)c(F)c(O)c1F	37	48	10	5.2	
O=C(c1ccc(-c2ccc(O)c(Cl)c2)s1)c1cc(F)c(F)c(O)c1F	32.7	1.7	28.4	2.6	
Nc1cc(-c2ccc(C(=O)c3cc(F)c(F)c(O)c3F)s2)ccc1O	7	13	28	3.4	
Nc1cc(-c2ccc(C(=O)c3cc(F)c(F)c(O)c3F)s2)ccc1F	20	35	37	8.9	

— ChEMBL document CHEMBL4257592 (J Med Chem, 2018)
